In ChEMBL document CHEMBL1201862, “PubChem BioAssay data set” (2004):
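96-well plates; 48 h exposure; 5 concentrations. Endpoints by linear interpolation between flanking doses. Not reached: highest tested concentration assigned. GI50 marks 50% less growth.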 Active and inactive are the calls of the source. Rule as the data show it: active = GI50 up to about 1.1 µM and inactive = higher.

Experiments:
Test in all cases: DTP human tumour cell line panel, 48 h
UO-31 = tested on: UO-31
MOLT-4 = tested on: MOLT-4
IGROV-1 = tested on: IGROV-1
SK-MEL-28 = tested on: SK-MEL-28
CCRF-CEM = tested on: CCRF-CEM
K562 = tested on: K562
HOP-92 = tested on: HOP-92
M14 = tested on: M14
SF-539 = tested on: SF-539
SF-295 = tested on: SF-295
OVCAR-4 = tested on: OVCAR-4
OVCAR-3 = tested on: OVCAR-3
Malme-3M = tested on: Malme-3M
786-0 = tested on: 786-0
SNB-75 = tested on: SNB-75
SNB-19 = tested on: SNB-19
NCI/ADR-RES = tested on: NCI/ADR-RES
T47D = tested on: T47D
DU-145 = tested on: DU-145
PC-3 = tested on: PC-3

SMILES | GI50 (UO-31) | GI50 (MOLT-4) | GI50 (IGROV-1) | GI50 (SK-MEL-28) | GI50 (CCRF-CEM) | GI50 (K562) | GI50 (HOP-92) | GI50 (M14) | GI50 (SF-539) | GI50 (SF-295) | GI50 (OVCAR-4) | GI50 (OVCAR-3) | GI50 (Malme-3M) | GI50 (786-0) | GI50 (SNB-75) | GI50 (SNB-19) | GI50 (NCI/ADR-RES) | GI50 (T47D) | GI50 (DU-145) | GI50 (PC-3)
C/C(CCn1[nH]c(=O)ccc1=O)=N\OCCCc1ccccc1 | > 100 µM (inactive) | > 100 µM (inactive) | > 100 µM (inactive) | > 100 µM (inactive) | > 100 µM (inactive) | > 100 µM (inactive) | 88.5 µM (inactive) | > 100 µM (inactive) | > 100 µM (inactive) | > 100 µM (inactive) | > 100 µM (inactive) | > 100 µM (inactive) | > 100 µM (inactive) | > 100 µM (inactive) | > 100 µM (inactive) | > 100 µM (inactive) |  |  |  | 
O=C(Nc1ccc(Cl)cc1Cl)C1C(=O)N(c2ccc(Cl)cc2Cl)C(=O)/C1=N\Nc1ccc([N+](=O)[O-])cc1[N+](=O)[O-] (stereo unspecified) | 15.8 µM (inactive) | 22 µM (inactive) | 83 µM (inactive) | 47.8 µM (inactive) | 23.1 µM (inactive) | 14.7 µM (inactive) | 23.3 µM (inactive) | 52 µM (inactive) | 36.6 µM (inactive) | 45.3 µM (inactive) | 43.5 µM (inactive) | 47.2 µM (inactive) | 64 µM (inactive) | 67.8 µM (inactive) | 27.3 µM (inactive) | 39.1 µM (inactive) |  |  |  | 
CCOC(=O)C1=C(C)C2C3C(=O)OC(=O)C3C1(C)C1C(=O)OC(=O)C21 (stereo unspecified) | > 100 µM (inactive) | > 100 µM (inactive) | > 100 µM (inactive) | > 100 µM (inactive) | > 100 µM (inactive) | > 100 µM (inactive) | > 100 µM (inactive) | > 100 µM (inactive) | > 100 µM (inactive) | > 100 µM (inactive) | > 100 µM (inactive) | > 100 µM (inactive) | > 100 µM (inactive) | > 100 µM (inactive) | > 100 µM (inactive) | > 100 µM (inactive) |  |  |  | 
Clc1cccc(C2N3CCCCC3[C@@H]3c4[nH]c5ccccc5c4CCN23)c1 (stereo partly specified) | 24.9 µM (inactive) | 23.1 µM (inactive) | 50.8 µM (inactive) | 22.8 µM (inactive) | 19.4 µM (inactive) | 23.1 µM (inactive) | 62.5 µM (inactive) | 27.9 µM (inactive) | 21.1 µM (inactive) | 51.1 µM (inactive) | 33.5 µM (inactive) | 34.8 µM (inactive) | 18.3 µM (inactive) | 32.6 µM (inactive) | 32.8 µM (inactive) | 55 µM (inactive) |  |  |  | 
Nc1nc(N)c2nc(CNc3ccc(C(=O)NC(CCC(=O)O)C(=O)O)cc3F)cnc2n1 (stereo unspecified) | < 0.01 µM (active) | < 0.01 µM (active) | < 0.01 µM (active) | > 100 µM (inactive) | < 0.01 µM (active) | < 0.01 µM (active) |  | < 0.01 µM (active) | < 0.01 µM (active) | < 0.01 µM (active) | > 81.7 µM (inactive) | 45.1 µM (inactive) |  | < 0.01 µM (active) | 16.1 µM (inactive) | < 0.01 µM (active) | < 0.01 µM (active) | < 0.01 µM (active) | < 0.01 µM (active) | 
CCOC(=O)/C=C1\Nc2ccccc2-n2nnnc21 | > 100 µM (inactive) | > 100 µM (inactive) | > 100 µM (inactive) | > 100 µM (inactive) | > 100 µM (inactive) | > 100 µM (inactive) | > 100 µM (inactive) | > 100 µM (inactive) | > 100 µM (inactive) | > 100 µM (inactive) | > 100 µM (inactive) | > 100 µM (inactive) | > 100 µM (inactive) | > 100 µM (inactive) | > 100 µM (inactive) | > 100 µM (inactive) |  |  |  | 
COC(=O)C1=CC(O)CCC1c1ccc(OC)cc1 (stereo unspecified) | > 100 µM (inactive) | > 100 µM (inactive) | > 100 µM (inactive) | > 100 µM (inactive) | > 100 µM (inactive) | > 100 µM (inactive) | > 100 µM (inactive) | > 100 µM (inactive) | > 100 µM (inactive) | > 100 µM (inactive) | > 100 µM (inactive) | > 100 µM (inactive) | > 100 µM (inactive) | > 100 µM (inactive) | > 100 µM (inactive) | > 100 µM (inactive) |  |  |  | 
CCOC(=O)c1nc2c3c(ncn2n1)Oc1c(c(-c2ccccc2)nn1-c1ccccc1)C3c1ccc(OC)c(OC)c1 (stereo unspecified) | > 100 µM (inactive) | > 100 µM (inactive) | 52.1 µM (inactive) | 49.2 µM (inactive) | > 100 µM (inactive) | 7.24 µM (inactive) | 41.1 µM (inactive) | > 100 µM (inactive) | 11.9 µM (inactive) | 23.8 µM (inactive) | 6.04 µM (inactive) | > 100 µM (inactive) | > 100 µM (inactive) | 31 µM (inactive) | 31.3 µM (inactive) | 24.3 µM (inactive) | 57.7 µM (inactive) |  | > 100 µM (inactive) | > 100 µM (inactive)
OC1=CN=C(C2CC2)Oc2ccccc21 | 25.7 µM (inactive) | > 100 µM (inactive) | > 100 µM (inactive) | > 100 µM (inactive) | > 100 µM (inactive) | 84.9 µM (inactive) | 96.2 µM (inactive) | > 100 µM (inactive) | > 100 µM (inactive) | 83.2 µM (inactive) | 85.3 µM (inactive) | > 100 µM (inactive) | > 100 µM (inactive) | > 100 µM (inactive) | > 100 µM (inactive) | > 100 µM (inactive) |  |  |  | 
O=S(=O)(CCC[C@H]1[C@@H](CCOCc2ccccc2)C2CCCN1O2)c1ccccc1 (stereo partly specified) | > 100 µM (inactive) | 65.3 µM (inactive) | > 100 µM (inactive) | > 100 µM (inactive) | > 100 µM (inactive) | 63.2 µM (inactive) | > 100 µM (inactive) | > 100 µM (inactive) | > 100 µM (inactive) | > 100 µM (inactive) | > 100 µM (inactive) | > 100 µM (inactive) | > 100 µM (inactive) | > 100 µM (inactive) | > 100 µM (inactive) | > 100 µM (inactive) | > 100 µM (inactive) | 59.2 µM (inactive) |  | > 100 µM (inactive)
Cc1ccc(NC(=O)CCc2nnc(S)[nH]2)cc1 | > 100 µM (inactive) | > 100 µM (inactive) | > 100 µM (inactive) | > 100 µM (inactive) | > 100 µM (inactive) | > 100 µM (inactive) | > 100 µM (inactive) | > 100 µM (inactive) | > 100 µM (inactive) | > 100 µM (inactive) | > 100 µM (inactive) | > 100 µM (inactive) | > 100 µM (inactive) | > 100 µM (inactive) | 83.2 µM (inactive) | > 100 µM (inactive) |  |  |  | 
COC(=O)c1ccccc1C1CN=NC12Cc1cccc(C)c1C2=O (stereo unspecified) | 20.8 µM (inactive) | 32.8 µM (inactive) | 59.8 µM (inactive) | 68.2 µM (inactive) | 52.7 µM (inactive) | 53.1 µM (inactive) | 25.5 µM (inactive) |  | > 100 µM (inactive) | 34.4 µM (inactive) | 33 µM (inactive) | 22.1 µM (inactive) | 43.7 µM (inactive) | 90.4 µM (inactive) | 33.3 µM (inactive) | 70 µM (inactive) | 9.84 µM (inactive) | 16.6 µM (inactive) | > 100 µM (inactive) | 
CC(=O)C1=C(O)C(N)C2Cc3c(c(O)c4c(O)c(C)ccc4c3C)C(=O)C2(O)C1=O (stereo unspecified) | 3.18 µM (inactive) | 1.71 µM (inactive) | 2.96 µM (inactive) | 2.06 µM (inactive) | 3.24 µM (inactive) | 1.87 µM (inactive) | 1.6 µM (inactive) | 2.47 µM (inactive) | 1.35 µM (inactive) | 1.26 µM (inactive) | 5.61 µM (inactive) | 1.3 µM (inactive) | 1.29 µM (inactive) | 2.58 µM (inactive) | 3.11 µM (inactive) | 2.34 µM (inactive) |  |  |  | 
Cc1ccc(NC(=O)/C(Cc2nc3ccc([N+](=O)[O-])cc3nc2O)=N\NC(=O)C[n+]2ccccc2)c(C)c1 | 18.4 µM (inactive) | 30.7 µM (inactive) | 35.4 µM (inactive) | 77.4 µM (inactive) | 26.6 µM (inactive) |  | 37.5 µM (inactive) | 89.1 µM (inactive) | 77.1 µM (inactive) | 58.1 µM (inactive) | 23 µM (inactive) | 23.1 µM (inactive) |  | 27.9 µM (inactive) | 97.3 µM (inactive) | 83.4 µM (inactive) | 40.9 µM (inactive) |  | 32.1 µM (inactive) | 39 µM (inactive)
CC(C)(C)C1CCC2c3c([nH]c4ccccc34)C3C(=O)N(c4ccccc4[N+](=O)[O-])C(=O)C3C2C1 (stereo unspecified) | 20.4 µM (inactive) | > 10 µM (inactive) | 16.7 µM (inactive) |  | 12.6 µM (inactive) | 11.9 µM (inactive) | 1.71 µM (inactive) | 13.8 µM (inactive) | 21.5 µM (inactive) | 12.3 µM (inactive) |  | 13 µM (inactive) | 16.4 µM (inactive) | 12.7 µM (inactive) |  | 19.3 µM (inactive) | 12.7 µM (inactive) |  | 8.39 µM (inactive) | 7.6 µM (inactive)
O=S(=O)(O)c1ccc([Se][Se]c2ccc(S(=O)(=O)O)cc2)cc1 | > 100 µM (inactive) | > 100 µM (inactive) | > 100 µM (inactive) | > 100 µM (inactive) | > 100 µM (inactive) | > 100 µM (inactive) | > 100 µM (inactive) | > 100 µM (inactive) | > 100 µM (inactive) | > 100 µM (inactive) | > 100 µM (inactive) | > 100 µM (inactive) | > 100 µM (inactive) | > 100 µM (inactive) | > 100 µM (inactive) | > 100 µM (inactive) |  |  |  | 
